How the values were obtained:
[1] = Central nervous depressant effect
benzodiazepine receptor = experiment: Benzodiazepine (BZD) receptor binding, 3H-diazepam displacement, crude cortical membrane preparation
Protocol: For the studies of benzodiazepine /BZD) receptor binding crude cortical membrane preparation was used. […] ^3 H-diazepam was incubated with the membrane for 1 hr at 0° C. in TRIS-citrate buffer, pH 6.8. Specific binding was determined in the presence of 10 μM diazepam. In displacement studies chlordiazepoxide was used as control drug.

[2] = Screening test: one session conditioning / unconditioned reflex, glass cylinder jump; type: in vivo, rats
Protocol: Was elaborated for studying learning and retention of rats during one session conditioning.
During conditioning rats are trained to jump onto the top of glass cylinder by the electric foot-shock (110 V). The escape reaction (unconditioned reflex, UR) is paired with a bell as conditioned stimulus. The criterion of learning is that conditioned reflex (CR) should be elicited 10 times with 10 s intervals without reinforcement. Retention of CR is taken positive when 24 h following the experiment CR can be elicited. In these experiments animals are distributed into 4 categories on the basis of their learning ability.

malaria = conditions: cited from earlier work
[3] = Effect on basal metabolism (O2 consumption); type: in vivo, rats; conditions: urethane 0.6 g/kg i.p., 30° C.
Protocol: The O2 consumption of rats was measured by the method of Issekutz and Issekutz (1952) at constant temperature (30° C.).
O2 consumption of the animals was expressed in ml/h and calculated for body surface, and given finally in ml/h/dm^2. Following injection of urethane and the basal O2 consumption was measured during 30 minutes. This was followed by the injection of the test substance and O2 consumption was registered immediately afterwards. The difference between the highest O2 consumption and the basal value was expressed in percent.
O2 consumption of the animals was calculated according to the following equation: [formula] V=2000 cm^3 P=pressure fall (mmHg)
T=period of measurement (h)
O2 consumption was calculated for body surface and expressed as ml/dm^2 /h. Body surface was calculated on the basis of the "Diack" formula: […]

## Cc1nc2cnc3ccccc3c2s1 [Formula I, 2-methyl-thiazolo[4,5-c]quinoline]
Spasmolytic effect
  spasmolytic effect: void of any spasmolytic effect
[1]
  central nervous depressant effect: significantly stronger central depressant effect than benzodiazepines
Benzodiazepine receptor
  binding by benzodiazepine receptors: not bound by benzodiazepine receptors
Benzodiazepine receptor; crude cortical membrane, 1 hr, 0° C., TRIS-citrate buffer, pH 6.8
  displacement of 3H-diazepam specific binding: even in high concentration did not alter the specific binding of ^3 H-diazepam
[2]; even in high doses
  escape of animals in the one session unconditioned reflex test: enables the escape of animals
[2]; rat, in vivo
  inhibition of non-specific activation mechanisms: does not inhibit non-specific activation mechanisms
malaria
  effect against malaria: completely ineffective against malaria

## O=C(CCCN1CCC(O)(c2ccc(Cl)cc2)CC1)c1ccc(F)cc1 [Haloperidol, reference compound]
[2]; 0.025 mg/kg
  inhibition of the development of conditioned reflex: strong inhibition
[3]
  rate of metabolism / O2 consumption: slightly decreased

## CC(N)Cc1ccccc1 (stereo not shown) [amphetamine]
[3]
  rate of metabolism / O2 consumption: dose-dependently increased

— patent US4778811A, “Pharmaceutical compositions of 2-methyl-thiazolo[4,5-c]quinoline” (EGIS Gyogyszergyar, priority 1985, dated 1988)
